“Also recorded” adds a separate entry of the source.
Tests used:
[1] = system: C57BL/6 mice with TIC model; experiment: von Frey mechanical threshold, TIC trigeminal nerve injury model; type: in vivo, mouse
Excerpt: Mice underwent the TIC nerve injury surgery, a simplified non-ligation variant of the trigeminal CCI-ION model previously described (Lyons et al., Neuroscience 2015 Jun. 4; 295:126-138; Ma et al., MolBrain 2012 Dec. 28; 5:44). Briefly, mice were anesthetized with isoflurane (3-4%) and a piece of chromic gut suture (2 mm length, 6-0) was placed parallel to the infraorbital nerve (ION) adjacent to the maxillary bone infraorbital fissure at a site just under the lower eyelid. Naïve controls underwent anesthesia only. The chronic trigeminal inflammatory compression (TIC) nerve injury model induces measurable changes in evoked reflexive or higher order pain-like and anxiety-like behaviors but are not otherwise detectable.
The HDAC4/5 inhibitor LMK235 (s.c., 5 mg/kg)(N-[[6-(Hydroxyamino)-6-oxohexyl]oxy]-3,5-dimethyl-benzamide) (Cayman Chemical Co., Ann Arbor, MI) was used at previously published dilutions (Bennett G J, Xie Y K. Pain 1988 April; 33:87-107). […] All treatments with the HDACi (5 mg/kg) or vehicle were given daily for seven consecutive days in the neck scruff (s.c.) for comparisons to naïve control mice.
In the first post-treatment study, male C57B1/6 mice were subcutaneously (s.c.) injected daily for seven days beginning in week 3 following the trigeminal nerve insult induced surgically. Withdrawal thresholds were tested weekly with von Frey fiber stimulation on the snout. One TIC mouse behaving erratically on day 1-7 was eliminated from the study.
In the second post-treatment study, C57B1/6 mice were treated daily for 14 days in week 8 and week 9 after the nerve insult. Withdrawal thresholds were determined weekly with von Frey fiber stimulation on the snout until experiment end.
Testing was done by an observer blinded to study group. Von Frey assessment of snout withdrawal threshold was conducted prior to and at least once a week after nerve injury to confirm development of craniofacial neuropathic pain. […]
Mechanical and cold sensitivity was modified for face as previously described (Montera M A, Westlund K N, Bio-protocol2020 April 20; 10(8):e3591-e3591; Lyons et al., Neuroscience 2015 Jun. 4; 295:126-138; Ma et al., Mol Brain 2012 Dec. 28; 5:44; Montera et al., Channels (Austin). 2021 December; 15(1):31-37). Briefly, animals were gently restrained and the mechanical threshold for nocifensive head withdrawal was determined using calibrated von Frey filaments (0.008 g-6.0 g) using the Up-Down method (Chaplan et al., J Neurosci Methods 1994 July; 53(1):55-63; FIG. 2). Cold sensitivity was determined by applying a 10° C. cold coil to the ION's receptive field and measuring the time until an animal withdrew its head (Montera et al., Channels (Austin). 2021 December; 15(1):31-37).

[2] = system: small (<30 μm) TG neurons from naïve mice; experiment: Whole-cell patch-clamp electrophysiology, TG neurons from naïve mice; type: cell-based, mouse; conditions: 13 μM for one hour vs 0.1% DMSO
Experimental: The excitability of TG neurons is directly linked to the pathophysiology of trigeminal neuropathic pain. In order to determine the effect of LMK235 on TG neurons from FRICT-ION mice, whole-cell patch-clamp electrophysiological recordings were made from small (<30 μm) TG neurons in the presence of LMK235 (13 μM) or vehicle (0.1% DMSO). TG neurons were obtained from FRICT-ION mice at three weeks post injury or naïve mice. The TG neurons were treated for one hour in vitro with either LMK235 or vehicle control prior to recording (FIG. 7).
Neurons with a diameter of <30 μm were identified by infrared differential interference contrast (IR-DIC) imaging with a microscope connected to an Olympus digital camera. Current clamp recordings were performed using a Molecular Devices Multiclamp 700B (Scientifica, UK). Signals were filtered at 5 KHz, acquired at 50 KHz using a Molecular Devices 1550B converter (Scientifica, UK) and recorded using Clampex 11 software (Molecular Devices, Scientifica, UK). Electrodes were pulled with a Zeitz puller (Werner Zeitz, Martinsreid, Germany) from borosilicate thick glass (GC150F, Sutter Instruments). Electrode resistance was 5-8 MΩ. Bridge balance was applied to all recordings. Intracellular solution contained (in mM) 125 K-gluconate, 6 KCl, 10 HEPES, 0.1 EGTA, 2 Mg-ATP, pH 7.3 with KOH, and osmolarity of 290-310 mOsm. Artificial cerebrospinal fluid (aCSF) contained (in mM) 113 NaCl, 3 KCl, 25 NaHCO3, 1 NaH2PO4, 2 CaCl2), 2 MgCl2, and 11-glucose. For whole-cell current clamp recordings, to evaluate the basic input-output action potential frequency response to hyperpolarization and depolarization, DC current was injected from 0 pA to +200 pA in 10-pA increments for a duration of 500 milliseconds at the cell's intrinsic resting membrane potential. Data acquisition was sampled at 20 kHz and filtered at 2.4 kHz. Recordings with a series resistance greater than 20 MΩ were discarded, and series resistance was compensated to 70%. In response to a −100 pA hyperpolarizing pulse with 500 millisecond duration, voltage sag amplitude was measured. Sag ratio was calculated using the following equation as described previously (Fan et al., Front Cell Neurosci 2016 Mar. 24; 10:74):
where Vpeak is the maximum voltage deflection and Vss is the steady state voltage at the end of the hyperpolarizing pulse.
Male mice were euthanized three weeks after inducing the FRICT-ION model. The TG were dissected, minced, and dissociated in an enzymatic combination containing sterile, calcium-free, and magnesium-free HBSS (Cat #14170112, Gibco), papain suspension (32.7 U/mgP, Cat #LS003126; Worthington, Lakewood, NJ), L-Cysteine (Cat #C7352-25g, Sigma), and saturated bicarbonate (Cat #S5761-500g, Sigma) solution. […]

Structure (SMILES): Cc1cc(C)cc(C(=O)NOCCCCCC(=O)NO)c1 [LMK235, N-[[6-(Hydroxyamino)-6-oxohexyl]oxy]-3,5-dimethyl-benzamide]
- mechanical threshold (von Frey), ipsilateral ([1]; C57BL/6 TIC mice, 5 mg/kg s.c., post-treatment 8 weeks after nerve injury, vs vehicle, 5 mg/kg): significantly reversed; also recorded: significantly increased the mechanical threshold
- mechanical threshold (von Frey), contralateral side ([1]; TIC mice treated in week 8): complete return to naïve baseline
- whisker pad mechanical threshold (von Frey) ([1]; male C57BL/6 TIC mice, 5 mg/kg s.c. daily for seven days in week 3, vs vehicle, 5 mg/kg): reversed to naïve baseline; also recorded: returned whisker pad mechanical threshold to naïve baseline
- time mechanical threshold remained at naïve baseline ([1]; male C57BL/6 TIC mice, 5 mg/kg s.c. daily in week 3): 4-6 weeks
- electrophysiological properties [2]: not significantly altered
- resting membrane potential (RMP) [2]: no significant differences
- rheobase [2]: no significant differences
- sag ratio [2]: no effect
